# Measured values as given in patent US20080312435A1, “Imine Compound” (TAISHO PHARMACEUTICAL CO., LTD., priority 2004, published 2008).
row,SMILES,melting point [°C]
1,O=C(/N=c1\ccccn1CC1CC1)C(F)(F)F,90 to 91
2,O=C(/N=c1\ccccn1CC1CC1)c1cc(Cl)ccc1Cl,53.5 to 54.5
3,Cc1s/c(=N\C(=O)C(F)(F)C(F)(F)C(F)(F)F)n(CC2CC2)c1C,92 to 94
4,CCc1s/c(=N\C(=O)c2cccc(C(F)(F)F)c2F)n(CC)c1C,115 to 117
5,O=C(/N=c1\ccccn1CC1CC1)c1cccc(F)c1C(F)(F)F,88 to 89
6,Cc1c(C(C)C)s/c(=N\C(=O)c2cccc(C(F)(F)F)c2F)n1C,89 to 91
7,Cc1c(C(C)C)s/c(=N\C(=O)c2cccc(C(F)(F)F)c2)n1CC1CC1,89 to 91
8,Cc1ccccc1C(=O)/N=c1\sc(C(C)(C)C)c(C)n1C,173 to 175
9,Cc1c(C(C)(C)C)s/c(=N\C(=O)c2cccc(Br)c2)n1C,173 to 175
10,Cc1c(C(C)(C)C)s/c(=N\C(=O)c2cccc(N(C)C)c2)n1C,189 to 190
11,Cc1c(C(C)(C)C)s/c(=N\C(=O)c2cccc(C#N)c2)n1C,131 to 133
12,COC(=O)c1cccc(C(=O)/N=c2\sc(C(C)(C)C)c(C)n2C)c1,192 to 193
13,Cc1c(C(C)(C)C)s/c(=N\C(=O)c2cccc(C(=O)O)c2)n1C,250 to 252
14,Cc1c(C(C)(C)C)s/c(=N\C(=O)c2cccc(F)c2F)n1C,176 to 178
15,COc1ccc(C(=O)/N=c2\sc(C(C)(C)C)c(C)n2C)c(OC)c1,138 to 140
16,Cc1c(C(C)(C)C)s/c(=N\C(=O)c2cc(C(F)(F)F)ccc2F)n1C,140 to 142
17,Cc1c(C(C)(C)C)s/c(=N\C(=O)c2cccnc2)n1C.Cl,202 to 203
18,O=C(/N=c1\ccccn1CCc1ccccc1)c1cccc(C(F)(F)F)c1F,117 to 118
19,O=C(/N=c1\ccccn1CC1CC1)c1cc(F)ccc1C(F)(F)F,88.5 to 89
20,CCn1c(C)c(C(C)(C)C)s/c1=N\C(=O)C(F)(F)C(F)(F)C(F)(F)F,113 to 115
21,CCCn1c(C)c(C(C)(C)C)s/c1=N\C(=O)c1cccc(C(F)(F)F)c1,172 to 174
22,Cc1c(C(C)(C)C)s/c(=N\C(=O)c2ccccc2)n1CC1CC1,106 to 107
23,O=C(/N=c1\ccccn1CC1CC1)c1cc(C(F)(F)F)ccc1F,127 to 127.5
24,Cc1c(C(C)(C)C)s/c(=N\C(=O)c2ccccc2O)n1CC1CC1,178 to 180

row,SMILES,melting point [°C]
1,O=C(/N=c1\ccccn1CC1CC1)c1cccc(C(F)(F)F)c1,105.5 to 106.5
2,CCN(CC)c1cccc(C(=O)/N=c2\sc(C(C)(C)C)c(C)n2CC2CC2)c1,89 to 90
3,CCN(CC)c1ccc(C(=O)/N=c2\sc(C(C)(C)C)c(C)n2CC2CC2)cc1,134 to 136
4,Cc1c(C(C)(C)C)s/c(=N\C(=O)c2cccc(N3CCCC3)c2)n1CC1CC1,118 to 120
5,Cc1c(C(C)(C)C)s/c(=N\C(=O)c2cccc(N3CCOCC3)c2)n1CC1CC1,114 to 115
6,Cc1c(C(C)(C)C)s/c(=N\C(=O)c2ccc(F)c(C(F)(F)F)c2)n1CC1CC1,123 to 124
7,Cc1c(C(C)(C)C)s/c(=N\C(=O)c2cc(F)cc(C(F)(F)F)c2)n1CC1CC1,100 to 102
8,Cc1c(C(C)(C)C)s/c(=N\C(=O)c2ccc(Cl)c(C(F)(F)F)c2)n1CC1CC1,122 to 124
9,O=C(/N=c1\ccc(C(F)(F)F)cn1CC1CC1)c1ccccc1C(F)(F)F,93 to 93.5
10,CCCNc1ccc(C(F)(F)F)cc1C(=O)/N=c1\sc(C(C)(C)C)c(C)n1CC1CC1,131 to 132
11,Cc1c(C(C)(C)C)s/c(=N\C(=O)c2cc(C(F)(F)F)ccc2N2CCC2)n1CC1CC1,100 to 102
12,Cc1c(C(C)(C)C)s/c(=N\C(=O)c2cc(C(F)(F)F)ccc2N2CCOCC2)n1CC1CC1,86 to 87
13,Cc1c(C(C)(C)C)s/c(=N\C(=O)c2ccc(F)c(C#N)c2)n1CC1CC1,195 to 197
14,Cc1ccc(C(=O)/N=c2\sc(C(C)(C)C)c(C)n2CC2CC2)cn1,228 to 230
15,Cc1c(C(C)(C)C)s/c(=N\C(=O)c2cncc(Br)c2)n1CC1CC1,152 to 154
16,O=C(/N=c1\ccc(C(F)(F)F)cn1CC1CC1)c1cc(C(F)(F)F)ccc1F,109 to 110
17,Cc1c(C(C)(C)C)s/c(=N\C(=O)c2cccnc2OC(C)C)n1CC1CC1,151 to 153
18,Cc1c(C(C)(C)C)s/c(=N\C(=O)c2cccnc2OC2C=CC=CC2)n1CC1CC1 (stereo not shown),111 to 114
19,COc1cc(C(=O)/N=c2\sc(C(C)(C)C)c(C)n2CC2CC2)c(OC)nn1,124 to 126
20,Cc1c(C(C)(C)C)s/c(=N\C(=O)c2cccnc2N2CCCC2)n1CC1CC1,97 to 98
21,COc1cc(C(=O)/N=c2\sc(C(C)(C)C)c(C)n2CC2CC2)cc(Cl)n1,127 to 128
22,CCCc1c(C(=O)/N=c2\sc(C(C)(C)C)c(C)n2CC2CC2)cnn1-c1ccccc1,104 to 105
23,Cc1c(C(C)(C)C)s/c(=N\C(=O)C2CCC2)n1CC1CC1,189 to 191
24,Cc1c(C(C)(C)C)s/c(=N\C(=O)Cc2ccccc2)n1CC1CC1,92 to 94

row,SMILES,melting point [°C]
1,Cc1c(C(C)(C)C)s/c(=N\C(=O)Cc2cccs2)n1CC1CC1,157 to 159
2,CCOC(=O)c1s/c(=N\C(=O)c2cccc(C(F)(F)F)c2)n(CC2CC2)c1C,115 to 116
3,Cc1c(C(=O)O)s/c(=N\C(=O)c2cccc(C(F)(F)F)c2)n1CC1CC1,291 to 293
4,Cc1c(C(=O)NC(C)C)s/c(=N\C(=O)c2cccc(C(F)(F)F)c2)n1CC1CC1,212 to 214
5,Cc1c(C(=O)N2CCCC2)s/c(=N\C(=O)c2cccc(C(F)(F)F)c2)n1CC1CC1,125 to 127
6,CC(C)c1s/c(=N\C(=O)c2cncc(Br)c2)n(CC2CC2)c1C(F)(F)F,139 to 141
7,CCn1c(C)c(Cl)s/c1=N\C(=O)c1cccc(C(F)(F)F)c1F,158 to 160
8,C=CCn1c(-c2ccccc2)c(-c2ccccc2)s/c1=N\C(=O)c1ccccc1,141 to 143
9,Cc1ccccc1C(=O)/N=c1\sc2ccccc2n1CC1CC1,115 to 117
10,CN(C)c1cccc(C(=O)/N=c2\sc3ccccc3n2CC2CC2)c1,156 to 158
11,Cc1ncccc1C(=O)/N=c1\sc2ccccc2n1CC1CC1,181 to 183
12,Cc1cc2s/c(=N\C(=O)c3ccccc3C)n(CC3CC3)c2cc1C,160 to 161
13,Cc1ccccc1C(=O)/N=c1\sc2cc(F)ccc2n1CC1CC1,143 to 145
14,Cc1ccccc1C(=O)/N=c1/sc2cccc(Cl)c2n1CC1CC1,146 to 148
15,Cc1ccccc1C(=O)/N=c1/sc2cccc(C)c2n1CC1CC1,133 to 134
16,Cc1ccccc1C(=O)/N=c1/sc2cc(F)cc(F)c2n1CC1CC1,146 to 148
17,COCCn1/c(=N/C(=O)c2cccc(C(F)(F)F)c2F)cc(C)n1C,144 to 145
18,COCCCn1/c(=N/C(=O)c2cccc(C(F)(F)F)c2F)cc(C)n1C,88 to 90
19,Cn1c(C(C)(C)C)c/c(=N\C(=O)C(F)(F)F)n1CC1CC1,122 to 124
20,Cn1c(C(C)(C)C)c/c(=N\C(=O)c2cccc(OC(F)(F)C(F)F)c2)n1CC1CC1,110 to 111
21,Cn1c(C(C)(C)C)c/c(=N\C(=O)c2cccc(Cl)c2Cl)n1CC1CC1,158 to 159
22,Cc1cccc(C(=O)/N=c2\cc(C(C)(C)C)n(C)n2CC2CC2)c1I,147 to 148
23,Cc1c(Br)cccc1C(=O)/N=c1\cc(C(C)(C)C)n(C)n1CC1CC1,138 to 139
24,Cc1c(I)cccc1C(=O)/N=c1\cc(C(C)(C)C)n(C)n1CC1CC1,138 to 140

row,SMILES,melting point [°C]
1,Cc1ccc(C(=O)/N=c2\cc(C(C)(C)C)n(C)n2CC2CC2)c(Br)c1,153 to 154
2,COc1cc(Cl)ccc1C(=O)/N=c1\cc(C(C)(C)C)n(C)n1CC1CC1,128 to 129
3,COc1ccc(C(F)(F)F)cc1C(=O)/N=c1\cc(C(C)(C)C)n(C)n1CC1CC1,99 to 101
4,Cc1ccc(F)cc1C(=O)/N=c1\cc(C(C)(C)C)n(C)n1CC1CC1,161 to 162
5,Cc1ccc(C(=O)/N=c2\cc(C(C)(C)C)n(C)n2CC2CC2)cc1Cl,135 to 136
6,Cc1c(C(C)(C)C)n(C)n(CC2CC2)/c1=N/C(=O)c1cccc(C(F)(F)F)c1F,149 to 150
7,Cn1c(C2CC2)c/c(=N\C(=O)c2cccc(C(F)(F)F)c2F)n1-c1ccccc1,168.5 to 169.5
8,Cn1c(C(F)(F)F)c(-c2ccccc2)/c(=N\C(=O)c2cccc(C(F)(F)F)c2F)n1C,169.5 to 170
9,Cn1cccc/c1=N\C(=O)c1cccc(C(F)(F)F)c1F,146 to 147
10,Cn1c(C(C)(C)C)c/c(=N\C(=S)Nc2ccc(F)cc2)n1CC1CC1,147.5 to 149.5
11,Cc1ccc(C(F)(F)F)cc1C(=O)/N=c1\sc(C(C)(C)C)nn1CC1CC1,63 to 65
12,CC(C)(C)c1nn(CC2CC2)/c(=N/C(=O)c2cc(C(F)(F)F)ccc2F)s1,47 to 49
13,COc1ccncc1C(=O)/N=c1\sc(C(C)(C)C)nn1CC1CC1,94 to 95
14,CCn1cccc/c1=N\C(=O)c1cccc(C(F)(F)F)c1F,93 to 95
15,O=C(/N=c1\sccn1CC1CC1)c1cccc(C(F)(F)F)c1F,96 to 97
16,CCn1c(C)cs/c1=N\C(=O)c1cccc(C(F)(F)F)c1F,48 to 50
17,Cc1cn(C)/c(=N/C(=O)c2cccnc2)s1,173 to 174
18,Cc1s/c(=N\C(=O)c2cccc(C(F)(F)F)c2)n(C)c1C,110 to 111
19,CCCCn1cccc/c1=N\C(=O)c1cccc(C(F)(F)F)c1F,51 to 52
20,Cc1s/c(=N\C(=O)c2cc(Cl)ccc2Cl)n(CC2CC2)c1C,113 to 115
21,Cc1s/c(=N\C(=O)c2ccc(Br)cc2F)n(CC2CC2)c1C,154 to 155
22,CCC(CC)C(=O)/N=c1\sc(C)c(C)n1CC1CC1,67 to 69
